Assay results from the CombiSolv-Exp solvation set (Vermeire and Green 2021).
Each block holds one compound with its values, some of them ahead of it.

Experiment: solvent given as SMILES

SMILES: Clc1c(Cl)c(Cl)c2c(c1Cl)Oc1c(Cl)c(Cl)c(Cl)c(Cl)c1O2
solvation free energy, 298 K (in O): -4.53 kcal/mol

SMILES: CCC(C)C(=O)OC1CC(C)C=C2C=CC(C)C(CCC3CC(O)CC(=O)O3)C21 (stereo not given)
solvation free energy, 298 K (in CC(=O)OC(C)C): -24.9 kcal/mol | solvation free energy, 298 K (in CC(=O)OCC(C)C): -24.8 kcal/mol | solvation free energy, 298 K (in CC(C)=O): -25.7 kcal/mol | solvation free energy, 298 K (in CCC(C)=O): -25.6 kcal/mol | solvation free energy, 298 K (in CCC(C)OC(C)=O): -24.9 kcal/mol | solvation free energy, 298 K (in CCCCCCCCO): -24.6 kcal/mol | solvation free energy, 298 K (in CCCCCCO): -24.8 kcal/mol | solvation free energy, 298 K (in CCCCCO): -24.9 kcal/mol | solvation free energy, 298 K (in CCCCO): -25.2 kcal/mol | solvation free energy, 298 K (in CCCCOC(C)=O): -24.9 kcal/mol | solvation free energy, 298 K (in CCCO): -25.2 kcal/mol | solvation free energy, 298 K (in CCCOC(C)=O): -25.1 kcal/mol | solvation free energy, 298 K (in CCO): -25.1 kcal/mol | solvation free energy, 298 K (in CCOC(C)=O): -25.1 kcal/mol | solvation free energy, 298 K (in CO): -25.2 kcal/mol | solvation free energy, 298 K (in COC(C)=O): -25.1 kcal/mol

SMILES: CNC1CCCCC1
solvation free energy, 298 K (in C1CCCCC1): -6.05 kcal/mol

SMILES: COc1nc(NC(C)C)nc(NC(C)C)n1
solvation free energy, 298 K (in O): -9.69 kcal/mol

SMILES: Cc1ccc(C)c(O)c1
solvation free energy, 298 K (in CCCCCC): -6.46 kcal/mol | solvation free energy, 298 K (in CCCCCCC): -6.44 kcal/mol | solvation free energy, 298 K (in CCCCCCCC): -6.44 kcal/mol | solvation free energy, 298 K (in Cc1ccc(C)cc1): -7.72 kcal/mol | solvation free energy, 298 K (in Cc1cccc(C)c1): -7.76 kcal/mol | solvation free energy, 298 K (in Cc1ccccc1C): -7.8 kcal/mol | solvation free energy, 298 K (in O): -5.92 kcal/mol

SMILES: FC(Cl)C(F)(F)F (stereo not given)
solvation free energy, 298 K (in CCCCCCCCO): -1.67 kcal/mol | solvation free energy, 298 K (in CN1CCCC1=O): -2.39 kcal/mol | solvation free energy, 298 K (in CN(C)C=O): -2.44 kcal/mol | solvation free energy, 298 K (in O): 0.79 kcal/mol

SMILES: CC(C)c1ccccc1
solvation free energy, 298 K (in C1CCOC1): -6.5 kcal/mol | solvation free energy, 298 K (in CC#N): -5.53 kcal/mol | solvation free energy, 298 K (in CC(C)=O): -5.89 kcal/mol | solvation free energy, 298 K (in CC(C)O): -5.21 kcal/mol | solvation free energy, 298 K (in CCCCCCC): -5.72 kcal/mol | solvation free energy, 298 K (in CCCCCCCCO): -5.43 kcal/mol | solvation free energy, 298 K (in CO): -5.18 kcal/mol | solvation free energy, 298 K (in NC=O): -3.38 kcal/mol | solvation free energy, 298 K (in O): -0.34 kcal/mol | solvation free energy, 298 K (in O=CN1CCOCC1): -5.28 kcal/mol | solvation free energy, 298 K (in OCCO): -3.54 kcal/mol | solvation free energy, 298 K (in OCCOCCO): -4.43 kcal/mol | solvation free energy, 298 K (in OCCOCCOCCO): -4.56 kcal/mol

SMILES: ClC1=C(Cl)C2(Cl)C3C4C=CC(C4)C3C1(Cl)C2(Cl)Cl (stereo not given)
solvation free energy, 298 K (in CCCCCCCCO): -11.3 kcal/mol | solvation free energy, 298 K (in O): -3.75 kcal/mol

SMILES: CCCCN(CC)C(=O)SCCC
solvation free energy, 298 K (in O): -3.64 kcal/mol

SMILES: CCCCCCO
solvation free energy, 298 K (in Brc1ccccc1): -5.98 kcal/mol | solvation free energy, 298 K (in C1CCOC1): -7.42 kcal/mol | solvation free energy, 298 K (in CC#N): -6.44 kcal/mol | solvation free energy, 298 K (in CC(C)CC(C)(C)C): -5.1 kcal/mol | solvation free energy, 298 K (in CC(C)O): -7.54 kcal/mol | solvation free energy, 298 K (in CCC(C)=O): -6.96 kcal/mol | solvation free energy, 298 K (in CCCCCC): -5.02 kcal/mol | solvation free energy, 298 K (in CCCCCCC): -5.27 kcal/mol | solvation free energy, 298 K (in CCCCCCCC): -4.99 kcal/mol | solvation free energy, 298 K (in CCCCCCCCCC): -4.99 kcal/mol | solvation free energy, 298 K (in CCCCCCCCCCCCCCCC): -4.89 kcal/mol | solvation free energy, 298 K (in CCCCCCCCCCO): -6.99 kcal/mol | solvation free energy, 298 K (in CCCCCCCCO): -7.06 kcal/mol | solvation free energy, 298 K (in CCCCCl): -5.99 kcal/mol | solvation free energy, 298 K (in CCCCOC(C)=O): -6.83 kcal/mol | solvation free energy, 298 K (in CCCOCCC): -6.31 kcal/mol | solvation free energy, 298 K (in Cc1ccccc1C): -5.91 kcal/mol | solvation free energy, 298 K (in NC=O): -6.04 kcal/mol | solvation free energy, 298 K (in O): -4.4 kcal/mol | solvation free energy, 298 K (in [2H]O[2H]): -4.57 kcal/mol

SMILES: Clc1cc(-c2cc(Cl)c(Cl)c(Cl)c2)cc(Cl)c1Cl
solvation free energy, 298 K (in O): -4.11 kcal/mol

SMILES: C1CCCCCCC1
solvation free energy, 298 K (in CCCCCCCCCCCCCCCC): -5.55 kcal/mol | solvation free energy, 298 K (in CN1CCCC1=O): -4.77 kcal/mol | solvation free energy, 298 K (in CN(C)C=O): -4.39 kcal/mol | solvation free energy, 298 K (in COCCO): -4.52 kcal/mol | solvation free energy, 298 K (in CS(C)=O): -3.85 kcal/mol | solvation free energy, 298 K (in N#CCCCCC#N): -4.01 kcal/mol | solvation free energy, 298 K (in NCCO): -3 kcal/mol | solvation free energy, 298 K (in O): 0.91 kcal/mol

SMILES: CCC(C)O (stereo not given)
solvation free energy, 298 K (in Brc1ccccc1): -4.15 kcal/mol | solvation free energy, 298 K (in C1COCCO1): -5.54 kcal/mol | solvation free energy, 298 K (in CC#N): -4.82 kcal/mol | solvation free energy, 298 K (in CC(=O)N(C)C): -5.89 kcal/mol | solvation free energy, 298 K (in CC(C)(C)O): -5.67 kcal/mol | solvation free energy, 298 K (in CC(C)CC(C)(C)C): -3.42 kcal/mol | solvation free energy, 298 K (in CC(C)O): -5.61 kcal/mol | solvation free energy, 298 K (in CC(C)OC(C)C): -4.56 kcal/mol | solvation free energy, 298 K (in CCC(C)=O): -5.18 kcal/mol | solvation free energy, 298 K (in CCCCCC): -3.56 kcal/mol | solvation free energy, 298 K (in CCCCCCC): -3.28 kcal/mol | solvation free energy, 298 K (in CCCCCCCC): -3.26 kcal/mol | solvation free energy, 298 K (in CCCCCCCCCCCCCCCC): -3.16 kcal/mol | solvation free energy, 298 K (in CCCCCCCCCCO): -5.31 kcal/mol | solvation free energy, 298 K (in CCCCCCCCO): -5.15 kcal/mol | solvation free energy, 298 K (in CCCCCl): -4.17 kcal/mol | solvation free energy, 298 K (in CCCCO): -5.5 kcal/mol | solvation free energy, 298 K (in CCCCOC(C)=O): -4.9 kcal/mol | solvation free energy, 298 K (in CCCOCCC): -4.4 kcal/mol | solvation free energy, 298 K (in CCOC(=O)c1ccccc1C(=O)OCC): -4.35 kcal/mol | solvation free energy, 298 K (in CN(C)C=O): -5.67 kcal/mol | solvation free energy, 298 K (in CO): -6.02 kcal/mol | solvation free energy, 298 K (in Cc1ccc(C)cc1): -4.23 kcal/mol | solvation free energy, 298 K (in Cc1cccc(C)c1): -4.14 kcal/mol | solvation free energy, 298 K (in Cc1ccccc1C): -4.19 kcal/mol | solvation free energy, 298 K (in Clc1ccccc1): -4.26 kcal/mol

SMILES: C=C(C)CC(C)(C)C
solvation free energy, 298 K (in CCC(C)=O): -4.34 kcal/mol | solvation free energy, 298 K (in O): 2.01 kcal/mol | solvation free energy, 298 K (in OCCO): -1.42 kcal/mol | solvation free energy, 298 K (in OCCOCCO): -2.19 kcal/mol | solvation free energy, 298 K (in OCCOCCOCCO): -2.29 kcal/mol

SMILES: O=[N+]([O-])c1ccc(Cl)c(Cl)c1Cl
solvation free energy, 298 K (in CCCCCCCCC=CCCCCCCCC(=O)OCC(COC(=O)CCCCCCCC=CCCCCCCCC)OC(=O)CCCCCCCC=CCCCCCCCC): -10.1 kcal/mol | solvation free energy, 298 K (in O): -4.07 kcal/mol

SMILES: O=C(O)Cc1ccccc1Nc1c(Cl)cccc1Cl
solvation free energy, 298 K (in C1COCCO1): -19.7 kcal/mol | solvation free energy, 298 K (in CCCCCO): -18.4 kcal/mol | solvation free energy, 298 K (in CCO): -18.5 kcal/mol | solvation free energy, 298 K (in CN(C)C=O): -20 kcal/mol | solvation free energy, 298 K (in CO): -18.5 kcal/mol | solvation free energy, 298 K (in Clc1ccccc1): -17.7 kcal/mol | solvation free energy, 298 K (in NC=O): -17.8 kcal/mol

SMILES: CCCCCCCCCCCCOC(=O)c1ccccc1C(=O)OCCCCCCCCCCCC
solvation free energy, 298 K (in O): -5.92 kcal/mol

SMILES: CSC
solvation free energy, 298 K (in C=C(C)CC(C)(C)C): -3.04 kcal/mol | solvation free energy, 298 K (in C=CCCCC): -3.07 kcal/mol | solvation free energy, 298 K (in CC(C)CC(C)(C)C): -2.9 kcal/mol | solvation free energy, 298 K (in CCCCCC): -2.97 kcal/mol | solvation free energy, 298 K (in ClC(Cl)(Cl)Cl): -3.6 kcal/mol | solvation free energy, 298 K (in ClC(Cl)Cl): -4.08 kcal/mol | solvation free energy, 298 K (in O): -1.5 kcal/mol

Further lines, results first:

solvation free energy, 298 K (in O): -6.15 kcal/mol
SMILES: O=C(CC(=O)C(F)(F)F)c1cccs1

solvation free energy, 298 K (in CCCO): -4.47 kcal/mol | solvation free energy, 298 K (in CO): -4.84 kcal/mol | solvation free energy, 298 K (in O): -2.84 kcal/mol
SMILES: CCCC(=O)OC

solvation free energy, 298 K (in O): -6.89 kcal/mol
SMILES: COc1cccc(C=O)c1O

solvation free energy, 298 K (in CN(C)C=O): -11.9 kcal/mol | solvation free energy, 298 K (in O): -7.01 kcal/mol
SMILES: COC(=O)c1ccc(N(C)C)cc1

solvation free energy, 298 K (in O): -0.82 kcal/mol
SMILES: Cc1ccccc1C(C)C

solvation free energy, 298 K (in O): -6.07 kcal/mol
SMILES: Cc1ccc(CN)cc1

solvation free energy, 298 K (in O): -3.87 kcal/mol
SMILES: C=C(C)C1CC=C(C)C(OC(=O)CC)C1 (stereo not given)

solvation free energy, 298 K (in O): -6.79 kcal/mol
SMILES: OCCc1ccccc1

solvation free energy, 298 K (in CCCCCC): -6.05 kcal/mol | solvation free energy, 298 K (in CCCCCCCCCCCCCCCC): -6.04 kcal/mol | solvation free energy, 298 K (in O): -4.58 kcal/mol
SMILES: CC(=O)c1ccccc1

solvation free energy, 298 K (in O): -1.46 kcal/mol
SMILES: CCSCC

solvation free energy, 298 K (in O): -3.26 kcal/mol
SMILES: C=CC(C)(CCC=C(C)C)OC(=O)CC (stereo not given)

solvation free energy, 298 K (in O): -6.88 kcal/mol
SMILES: CC(C)CCOC(=O)c1ccccc1C(=O)OCCC(C)C

solvation free energy, 298 K (in O): -7.29 kcal/mol
SMILES: COc1cccc(N)c1

solvation free energy, 298 K (in O): -5.73 kcal/mol
SMILES: CCCNCc1ccc(C)cc1

solvation free energy, 298 K (in O): -15.1 kcal/mol
SMILES: CC(C(=O)O)c1ccc2c(c1)[nH]c1ccc(Cl)cc12 (stereo not given)

solvation free energy, 298 K (in O): -2.53 kcal/mol
SMILES: C=C(C)C(=O)OC

solvation free energy, 298 K (in O): -6 kcal/mol
SMILES: CCOC(=O)CC(=O)OCC

solvation free energy, 298 K (in C=CCCCCCCCCCCCCCC): -3.97 kcal/mol | solvation free energy, 298 K (in CC#N): -3.2 kcal/mol
SMILES: CCC(C)C(C)C (stereo not given)

solvation free energy, 298 K (in O): -9.4 kcal/mol
SMILES: O=C(O)c1cc(-c2ccc(F)cc2F)ccc1O

solvation free energy, 298 K (in O): -2.69 kcal/mol
SMILES: CC(=O)OC1C2(C)CCC(C2)C1(C)C (stereo not given)

solvation free energy, 298 K (in O): -3.82 kcal/mol
SMILES: CCOC(=O)c1ccccc1O
